Legend:
Mcl1 = assay: Western blot of Mcl-1 levels; type: cell-based
Method: Total cell lysates were prepared by boiling and sonicating cell pellets in 1× Laemmli reducing sample buffer. To prepare detergent soluble and insoluble fractions, cells were lysed in cold isotonic lysis buffer [10 mM Tris-HCl (pH 7.5), 0.5% Triton X-100, 150 mM NaCl along with Mini-Complete and PhosSTOP] for 15 min on ice and centrifuged 10 min at 20,000 RCF. The clarified supernatant was used as the detergent soluble cell fraction. The residual pellet was washed and extracted in Laemmli reducing sample buffer and briefly sonicated to derive the detergent insoluble fraction. Equal volumes of cellular lysate or equal protein amounts were electrophoresed on SDS-PAGE gels and transferred to nitrocellulose membranes (Whatmann, Dassel, Germany). Proteins were detected by immunoblotting.
Whole cell lysates were prepared by boiling and sonicating the cell pellets in 1× Laemmli reducing sample buffer. To prepare detergent soluble and insoluble fractions, cells were lysed in cold isotonic lysis buffer [10 mM Tris-HCl (pH 7.5), 0.5% Triton X-100, 150 mM NaCl along with Mini-Complete and PhosSTOP] for 15 min on ice and centrifuged 10 minutes at 20,000 RCF. The clarified supernatant was used as a source of the detergent soluble cell fraction. The detergent insoluble fraction was extracted by the sonication of residual pellet in equal volumes of boiling 1× Laemmli reducing sample buffer. […]

Toxoplasma gondii = Toxoplasma gondii replication in human foreskin fibroblasts; type: cell-based
Method: Primary human foreskin fibroblasts (HFF) were infected with trachyzoites in the presence of WP1130 or vehicle control for 24 hours. […] 1.25×10^5 tachyziotes (RH strain) (MOI=1) were added to each well of a chamber slide in the presence of WP1130 or vehicle control. At 24 hours post infection, cells were fixed in 4% paraformaldehyde for fifteen minutes. Cells were then washed with PBS and analyzed by immunofluorescence microscopy. Parasites were stained with an anti-SAG 1 antibody (the immunodominant surface antigen of T. gondii) followed by an Alexa 594-labeled secondary antibody and DAPI. For quantitative analysis the number of parasites/vacuole were counted.
WP1130 also blocks the replication of the apicomplexan Toxoplasma gondii in primary human foreskin fibroblasts. Cells were treated with WP1130 and infected with tachyziotes (RH strain) (MOI 1) for 24 hr before performing immunofluorescence and counting parasite-containing vacuoles.

UCH-L1 = UCH-L1 (Homo sapiens, UniProt P09936); assay: Ub-AMC assay on purified DUB; type: biochemical; conditions: 5 μM
UCH-L1, sequence (P09936 whole entry, species assumed): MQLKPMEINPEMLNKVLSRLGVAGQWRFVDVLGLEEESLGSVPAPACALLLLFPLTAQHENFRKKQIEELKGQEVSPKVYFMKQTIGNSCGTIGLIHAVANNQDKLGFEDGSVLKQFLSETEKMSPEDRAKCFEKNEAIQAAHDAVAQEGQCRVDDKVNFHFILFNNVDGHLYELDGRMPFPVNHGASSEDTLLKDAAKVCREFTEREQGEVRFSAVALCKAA
Method: (§1) Purified DUBs at optimal concentrations (USPS; 20 nM, UCH-L1; 20 nM, UCH-L3; 5 nM, USP9x; immunoprecipitated from 500 μg Z138 cell lysate) were incubated in DUB buffer containing WP1130, vehicle alone (DMSO) or 1 mM NEM (positive control for DUB inhibition) in a 100 μL reaction volume for 30 min. The reaction was initiated by the addition of 500 nM Ub-AMC and the release of AMC-fluorescence was recorded at ex/em 380/480 using a spectrofluorometer.
(§2) USP9x was immunoprecipitated from Z138 cell lysates, prepared in DUB buffer and the beads were incubated with vehicle alone or WP1130 for 30 min. Ub-AMC (500 nM) was added to each reaction and fluorescence was monitored every minute for up to 30 minutes. The maximum fluorescence observed at the end of the linear phase of substrate cleavage in control and WP1130 treated DUBs was used as a gauge to estimate DUB activity and % inhibition. Treatment with 5 μM WP1130 reduced the activities of USP9x, USP5 and UCH-L1 by 80% or more.

UCH-L3 = UCH-L3 (Homo sapiens, UniProt P15374); assay: Ub-AMC assay on purified DUB; type: biochemical
UCH-L3, sequence (P15374 whole entry, species assumed): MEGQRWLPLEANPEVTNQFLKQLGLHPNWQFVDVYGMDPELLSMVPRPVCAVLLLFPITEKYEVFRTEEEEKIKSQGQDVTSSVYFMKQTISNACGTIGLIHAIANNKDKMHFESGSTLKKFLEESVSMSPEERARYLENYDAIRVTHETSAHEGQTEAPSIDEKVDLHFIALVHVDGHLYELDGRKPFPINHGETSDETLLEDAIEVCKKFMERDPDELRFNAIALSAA
Method: as §1, §2

USP5 = target: T1, USP5 (Homo sapiens, UniProt P45974); assay: Ub-AMC assay on purified DUB; type: biochemical; conditions: 5 μM
T1 construct: endogenous in cells; host or cells: Z138
T1 sequence (P45974 1-858): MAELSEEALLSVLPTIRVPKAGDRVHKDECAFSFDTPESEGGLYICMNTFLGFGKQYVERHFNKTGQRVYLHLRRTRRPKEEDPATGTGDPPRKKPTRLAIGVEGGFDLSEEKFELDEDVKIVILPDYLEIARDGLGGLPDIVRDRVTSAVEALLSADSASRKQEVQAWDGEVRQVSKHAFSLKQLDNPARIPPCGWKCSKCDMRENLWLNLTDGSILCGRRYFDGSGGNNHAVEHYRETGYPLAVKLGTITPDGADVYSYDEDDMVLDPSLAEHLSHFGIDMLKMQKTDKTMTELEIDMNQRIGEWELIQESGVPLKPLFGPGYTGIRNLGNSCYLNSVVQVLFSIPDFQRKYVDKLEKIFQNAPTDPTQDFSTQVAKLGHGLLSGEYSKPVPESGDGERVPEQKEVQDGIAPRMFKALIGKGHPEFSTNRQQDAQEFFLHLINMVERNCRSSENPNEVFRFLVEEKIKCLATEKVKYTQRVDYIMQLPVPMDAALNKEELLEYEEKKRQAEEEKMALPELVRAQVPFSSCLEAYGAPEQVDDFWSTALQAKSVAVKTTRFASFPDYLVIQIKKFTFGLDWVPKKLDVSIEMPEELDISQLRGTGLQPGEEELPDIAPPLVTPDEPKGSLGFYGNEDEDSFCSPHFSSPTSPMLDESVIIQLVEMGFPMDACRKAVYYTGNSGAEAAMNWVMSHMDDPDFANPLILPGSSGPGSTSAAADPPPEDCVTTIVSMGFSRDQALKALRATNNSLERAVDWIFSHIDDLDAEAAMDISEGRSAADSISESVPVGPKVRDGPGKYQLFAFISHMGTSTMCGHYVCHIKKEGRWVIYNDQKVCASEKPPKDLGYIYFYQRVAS
Method: as §1, §2

[1] = tested on: CML and melanoma xenografts; assay: Xenograft mouse models of CML and melanoma; type: in vivo
[2] = primary human foreskin fibroblasts, RH strain MOI 1, 24 hr

## CCC[C@H](NC(=O)/C(C#N)=C/c1cccc(Br)n1)c1ccccc1 [WP1130]
Mcl1; Z138 cells
  MCL-1 levels: rapid decline
Mcl1; imatinib sensitive and resistant CML cells
  Mcl-1 levels: reduced
Toxoplasma gondii; HFF, 5 μM, 24 hours post infection
  number of parasites per vacuole: significantly reduced
Toxoplasma gondii; [2]
  decrease in the vacuoles containing 4 parasites: ~5 fold
  increase in the number of vacuoles containing only 1 parasite: ~3 fold
UCH-L1
  reduction of UCH-L1 activity: ≥ 80%
UCH-L3
  inhibition of UCH-L3 activity: No inhibition
USP5
  reduction of USP5 activity: ≥ 80%
[1]
  tumor growth in vivo: effectively suppresses tumor growth
